Experimental data published in article PMC11612555, “Impact of camel milk lactoferrin peptides against breast cancer cells: in silico and in vitro study” (Frontiers in Pharmacology, 2024).
≈ marks a conversion by molar mass, not a printed value. Read-outs that look alike come from different tables or passages of the source. Ends that are not written are not given here. Peptide text beside a SMILES is read from it.

What was measured:
MCF-7 cells = system: MCF-7 cells; parameters: % of inhibition of MCF-7: dose or concentration left out as unconfirmed; conditions: for IC50 Range / IC50 Value: MCF-7, MTT; for IC50 Value: mean ± SD
Protocol: DMEM medium supplemented with 10% fetal bovine serum (FBS) and 1% penicillin-streptomycin (10,000 U/mL) (complete media) was prepared to culture MCF-7 and HDFa cells in T25 flasks at 37°C in a CO2 incubator. Once the cells had adhered and grown to 70%–90% confluence within 24–48 h, they were transferred to new flasks. 2 mL of 0.25% trypsin was added to detach the cells, which were then incubated for 5 min at 37°C. The trypsin activity was stopped by adding 2 mL of complete media. The detached cells were collected into a tube and centrifuged at 1,500 rpm for 5 min. After removing the supernatant, 3 mL of media was added to resuspend the cell pellet. 20 μL of suspended cells were mixed with 20 µL of 0.4% trypan blue for staining and cell counting. 100 μL of suspended cells in complete media, containing approximately 10^4 cells, were added to each well of a 96-well plate and incubated for 24 h to allow cell attachment. […] Each concentration was repeated three times. After a 48-h incubation period at 37°C, the peptide-treated medium was replaced with 100 µL of 0.5 mg/mL MTT and incubated for 4 h at 37°C in the dark. Following removal of the MTT and addition of 100 µL of DMSO, the absorbance of each well in the 96-well plate was measured at 595 nm using an ELISA reader (Bio-RAD microplate reader, Japan) ([Ali et al., 2018]; [Salim et al., 2022]).
The percentage viability was calculated by multiplying the absorbance of treated cells by 100 and dividing the absorbance of untreated cells. The viability of untreated cells is considered 100%. The each concentration of each peptide and cisplatin was repeated triplicate. The unite of cell viability and IC50 are percentage and μg/mL. The viability and IC50 of the treated cells are expressed as the mean ± standard deviation (SD). GraphPad Prism software (version 9.0, San Diego, CA, United States) was used to calculate the IC50 values of the peptides, mitotane, and their combination.

HDFa cells = assay: MTT assay on HDFa normal cells, 48 h; type: cell-based, human; conditions: for IC50 Value: mean ± SD
Protocol: DMEM medium supplemented with 10% fetal bovine serum (FBS) and 1% penicillin-streptomycin (10,000 U/mL) (complete media) was prepared to culture MCF-7 and HDFa cells in T25 flasks at 37°C in a CO2 incubator. Once the cells had adhered and grown to 70%–90% confluence within 24–48 h, they were transferred to new flasks. 2 mL of 0.25% trypsin was added to detach the cells, which were then incubated for 5 min at 37°C. The trypsin activity was stopped by adding 2 mL of complete media. The detached cells were collected into a tube and centrifuged at 1,500 rpm for 5 min. After removing the supernatant, 3 mL of media was added to resuspend the cell pellet. 20 μL of suspended cells were mixed with 20 µL of 0.4% trypan blue for staining and cell counting. 100 μL of suspended cells in complete media, containing approximately 10^4 cells, were added to each well of a 96-well plate and incubated for 24 h to allow cell attachment. Peptides (PEP20, PEP24, PEP63, PEP66, PEP67, and PEP74) at various concentrations (200, 100, 50, 25, 12.5, 6.25 μg/mL) were then added to the media in each well. Each concentration was repeated three times. After a 48-h incubation period at 37°C, the peptide-treated medium was replaced with 100 µL of 0.5 mg/mL MTT and incubated for 4 h at 37°C in the dark. Following removal of the MTT and addition of 100 µL of DMSO, the absorbance of each well in the 96-well plate was measured at 595 nm using an ELISA reader (Bio-RAD microplate reader, Japan) ([Ali et al., 2018]; [Salim et al., 2022]).
The percentage viability was calculated by multiplying the absorbance of treated cells by 100 and dividing the absorbance of untreated cells. The viability of untreated cells is considered 100%. The each concentration of each peptide and cisplatin was repeated triplicate. The unite of cell viability and IC50 are percentage and μg/mL. The viability and IC50 of the treated cells are expressed as the mean ± standard deviation (SD). GraphPad Prism software (version 9.0, San Diego, CA, United States) was used to calculate the IC50 values of the peptides, […], and their combination.

[1] = IC50 of HDFa related to IC50 of MCF-7

| Compound | SI (selectivity index) (MCF-7 cells; [1]) | IC50 Range (MCF-7 cells; 48 h) [µg/mL] | IC50 Value (MCF-7 cells; 48 h) [µg/mL] | IC50 Range (HDFa cells) [µg/mL] | also measured |
| --- | --- | --- | --- | --- | --- |
| N.N.[Cl][Pt][Cl] [Cisplatin, reference compound] | 1.565 | 3.581 to 5.055 | 4.255 ± 0.738 | 5.650 to 7.856 | IC50 Value (MCF-7 cells; 48 h, listed as cisplatin): 4.25 µg/mL; IC50 Value (HDFa cells): 6.663 ± 1.10 µg/mL; IC50 Value (HDFa cells; listed as cisplatin): 6.66 µg/mL |
| CSCC[C@H](NC(=O)[C@H](CC(C)C)NC(=O)[C@H](Cc1ccccc1)NC(=O)[C@H](C)NC(=O)[C@H](CS)NC(=O)[C@H](C)NC(=O)[C@H](CCC(=O)O)NC(=O)[C@H](CC(C)C)NC(=O)[C@H](CC(C)C)NC(=O)[C@@H]1CCCN1C(=O)[C@H](CO)NC(=O)[C@@H](NC(=O)[C@H](CO)NC(=O)[C@@H](N)CS)[C@@H](C)O)C(=O)N[C@@H](CCCNC(=N)N)C(=O)O [PEP66, CSTSPLLEACAFLMR] (H-CSTSPLLEACAFLMR-OH; N-terminus and C-terminus assumed) | 3.19 | 46.73 to 59.71 | 52.82 ± 6.49 (≈ 32.2 µM) | 137.2 to 206.9 | % of inhibition of MCF-7 (MCF-7 cells; concentration (Figure 6)): 76.90%; percentage of MCF7 inhibition (MCF-7 cells; dose of 200 μg/mL): 77% |
| LFFPALLSLGALGLCLAASK [PEP67] |  |  |  |  | SI (selectivity index) (MCF-7 cells): 0.6 |
| PWNHIKRYF [PEP24, PWNHIKRYF] |  |  |  |  | IC50 (MCF-7 cells; 48 h): > 200 µg/mL |
